# Laboratory results from US20230139171A1 (SITA Information Networking Computing UK Limited, priority 2019, published 2023).
# Legend:
# Format in all cases: cell-based
# human TLR9 = molecular target: T1, human TLR9 (Homo sapiens, UniProt Q9NR96); test: TLR9 inhibition reporter assay (HEK-Blue cells, SEAP reporter, ODN2006 stimulation); conditions: HEK-Blue cells overexpressing human TLR9, SEAP reporter, ODN2006 5 nM
# T1 construct: host or cells: HEK-Blue cells
# T1 sequence (Q9NR96 26-1032): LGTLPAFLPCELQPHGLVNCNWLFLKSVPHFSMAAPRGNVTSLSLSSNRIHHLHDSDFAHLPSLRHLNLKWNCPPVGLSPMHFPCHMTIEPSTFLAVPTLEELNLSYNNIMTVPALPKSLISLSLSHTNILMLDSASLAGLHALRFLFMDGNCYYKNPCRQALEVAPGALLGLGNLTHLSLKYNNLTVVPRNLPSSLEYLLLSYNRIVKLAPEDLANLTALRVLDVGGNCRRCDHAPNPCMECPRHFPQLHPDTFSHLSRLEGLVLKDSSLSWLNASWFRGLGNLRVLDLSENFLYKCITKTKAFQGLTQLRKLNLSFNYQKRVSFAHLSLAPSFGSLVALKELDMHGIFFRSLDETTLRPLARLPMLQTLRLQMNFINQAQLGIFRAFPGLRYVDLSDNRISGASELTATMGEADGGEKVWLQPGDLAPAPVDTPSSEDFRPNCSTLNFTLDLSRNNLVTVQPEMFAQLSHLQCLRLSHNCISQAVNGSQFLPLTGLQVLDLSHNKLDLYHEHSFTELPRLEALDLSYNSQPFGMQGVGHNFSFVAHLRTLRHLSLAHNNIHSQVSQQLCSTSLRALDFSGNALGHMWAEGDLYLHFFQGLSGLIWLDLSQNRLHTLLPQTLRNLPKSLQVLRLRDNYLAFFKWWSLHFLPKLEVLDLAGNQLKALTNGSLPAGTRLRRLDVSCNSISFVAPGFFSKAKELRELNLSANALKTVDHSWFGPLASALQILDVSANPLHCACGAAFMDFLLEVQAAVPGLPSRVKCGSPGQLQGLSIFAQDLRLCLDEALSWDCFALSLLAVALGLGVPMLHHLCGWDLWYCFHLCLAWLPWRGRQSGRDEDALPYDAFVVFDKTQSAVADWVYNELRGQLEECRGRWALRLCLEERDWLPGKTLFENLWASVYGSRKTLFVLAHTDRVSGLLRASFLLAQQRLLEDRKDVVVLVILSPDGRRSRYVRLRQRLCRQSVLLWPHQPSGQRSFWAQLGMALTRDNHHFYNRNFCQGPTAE
# Summary of the method: (§1)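 Agonists used: gardiquimod 7.5 μM (TLR7), R848 15.9 μM (TLR8), ODN2006 5 nM (TLR9), added after 30 min room-temperature compound pre-treatment (0.05 nM–50 μM) of receptor-overexpressing HEK-Blue cells. SEAP reporter (NF-κB/AP-1 driven) read after 22 h at 37 °C; inhibition scaled between agonist+DMSO and reference-inhibitor wells.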
# human TLR8 = molecular target: T2, human TLR8 (Homo sapiens, UniProt Q9NR97); test: TLR8 inhibition reporter assay (HEK-Blue cells, SEAP reporter, R848 stimulation); conditions: HEK-Blue cells overexpressing human TLR8, SEAP reporter, R848 15.9 μM; read-out: TLR8 IC50
# T2 construct: host or cells: HEK-Blue cells
# T2 sequence (Q9NR97 27-1041): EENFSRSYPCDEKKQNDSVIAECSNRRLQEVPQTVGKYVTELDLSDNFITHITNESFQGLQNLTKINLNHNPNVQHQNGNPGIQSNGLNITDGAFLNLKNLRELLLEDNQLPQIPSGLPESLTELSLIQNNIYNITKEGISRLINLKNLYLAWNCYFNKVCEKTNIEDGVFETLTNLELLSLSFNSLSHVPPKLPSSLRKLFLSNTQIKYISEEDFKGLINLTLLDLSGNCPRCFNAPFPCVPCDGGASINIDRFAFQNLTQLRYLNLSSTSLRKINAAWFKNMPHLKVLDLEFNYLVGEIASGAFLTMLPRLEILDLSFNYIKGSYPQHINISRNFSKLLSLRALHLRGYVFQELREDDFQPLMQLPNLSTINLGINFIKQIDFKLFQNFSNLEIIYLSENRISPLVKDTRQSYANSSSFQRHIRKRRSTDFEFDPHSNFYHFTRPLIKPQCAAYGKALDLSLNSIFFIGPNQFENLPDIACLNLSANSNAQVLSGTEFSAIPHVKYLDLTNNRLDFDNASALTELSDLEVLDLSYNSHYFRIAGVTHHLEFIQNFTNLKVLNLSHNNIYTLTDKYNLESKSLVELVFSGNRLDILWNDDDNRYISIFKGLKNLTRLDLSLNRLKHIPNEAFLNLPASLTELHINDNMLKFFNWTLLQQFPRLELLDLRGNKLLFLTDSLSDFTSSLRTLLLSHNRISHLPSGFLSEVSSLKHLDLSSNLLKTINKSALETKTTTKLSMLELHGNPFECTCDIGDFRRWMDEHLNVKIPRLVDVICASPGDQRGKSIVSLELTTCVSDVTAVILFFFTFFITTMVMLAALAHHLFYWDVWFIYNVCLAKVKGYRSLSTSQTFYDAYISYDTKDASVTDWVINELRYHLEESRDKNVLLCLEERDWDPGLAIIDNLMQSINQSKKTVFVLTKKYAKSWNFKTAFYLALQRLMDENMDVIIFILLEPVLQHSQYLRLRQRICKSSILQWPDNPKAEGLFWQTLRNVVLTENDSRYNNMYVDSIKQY
# Summary of the method: as §1
# human TLR7 = molecular target: T3, human TLR7 (Homo sapiens, UniProt Q9NYK1); test: TLR7 inhibition reporter assay (HEK-Blue cells, SEAP reporter, gardiquimod stimulation); conditions: HEK-Blue cells overexpressing human TLR7, SEAP reporter, gardiquimod 7.5 μM; read-out: TLR7 IC50
# T3 construct: host or cells: HEK-Blue cells
# T3 sequence (Q9NYK1 27-1049): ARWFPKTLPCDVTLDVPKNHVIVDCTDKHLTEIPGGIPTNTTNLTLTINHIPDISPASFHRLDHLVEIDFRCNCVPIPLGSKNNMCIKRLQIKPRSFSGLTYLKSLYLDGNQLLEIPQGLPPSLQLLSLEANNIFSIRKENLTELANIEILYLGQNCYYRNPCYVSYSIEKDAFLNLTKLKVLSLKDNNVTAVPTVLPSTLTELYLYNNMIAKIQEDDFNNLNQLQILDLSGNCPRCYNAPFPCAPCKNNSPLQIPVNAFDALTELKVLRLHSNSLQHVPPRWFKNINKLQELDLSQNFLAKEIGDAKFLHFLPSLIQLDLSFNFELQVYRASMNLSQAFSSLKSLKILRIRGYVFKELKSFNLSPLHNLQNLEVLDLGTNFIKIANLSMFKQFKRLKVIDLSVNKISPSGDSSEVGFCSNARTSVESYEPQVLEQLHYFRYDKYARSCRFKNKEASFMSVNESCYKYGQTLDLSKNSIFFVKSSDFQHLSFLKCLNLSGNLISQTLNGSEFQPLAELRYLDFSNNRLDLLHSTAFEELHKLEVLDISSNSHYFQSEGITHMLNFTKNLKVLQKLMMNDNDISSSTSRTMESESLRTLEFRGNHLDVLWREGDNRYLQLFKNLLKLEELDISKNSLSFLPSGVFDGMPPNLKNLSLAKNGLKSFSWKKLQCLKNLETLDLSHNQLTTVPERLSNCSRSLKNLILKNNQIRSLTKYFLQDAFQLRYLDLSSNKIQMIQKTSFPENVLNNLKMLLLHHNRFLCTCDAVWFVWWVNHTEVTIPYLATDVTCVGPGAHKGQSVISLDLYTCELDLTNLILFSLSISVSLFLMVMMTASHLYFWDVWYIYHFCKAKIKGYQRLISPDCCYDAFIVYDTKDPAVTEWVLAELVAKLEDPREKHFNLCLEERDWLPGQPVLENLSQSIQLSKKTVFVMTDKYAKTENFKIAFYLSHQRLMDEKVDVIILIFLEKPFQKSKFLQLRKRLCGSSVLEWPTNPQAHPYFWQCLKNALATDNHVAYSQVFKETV
# Summary of the method: as §1
SMILES,IC50 (human TLR9),IC50 (human TLR8),IC50 (human TLR7)
"Cc1c(-c2[nH]c3sc(C4CCC(NC5CCS(=O)(=O)C5)CC4)nc3c2C(C)C)cn2ncnc2c1C (single isomer, unassigned) [Example 232, 3-((4-(5-(7,8-dimethyl-[1,2,4]triazolo[1,5-a]pyridin-6-yl)-6-isopropyl-4H-pyrrolo[3,2-d]thiazol-2-yl)cyclohexyl)amino)tetrahydrothiophene 1,1-dioxide]",> 50000 nM,7.87 nM,4.19 nM
"Cc1c(-c2[nH]c3sc(C4CCC(N5CC6(C5)CS(=O)(=O)C6)CC4)nc3c2C(C)C)cn2ncnc2c1C (single isomer, unassigned) [Example 233, 6-(4-(5-(7,8-dimethyl-[1,2,4]triazolo[1,5-a]pyridin-6-yl)-6-isopropyl-4H-pyrrolo[3,2-d]thiazol-2-yl)cyclohexyl)-2-thia-6-azaspiro[3.3]heptane 2,2-dioxide]",> 50000 nM,0.59 nM,2.3 nM
"Cc1c(-c2[nH]c3sc(C4CCC(N5CC6(C5)CS(=O)(=O)C6)CC4)nc3c2C(C)C)cn2ncnc2c1C (single isomer, unassigned) [Example 234, 6-(4-(5-(7,8-dimethyl-[1,2,4]triazolo[1,5-a]pyridin-6-yl)-6-isopropyl-4H-pyrrolo[3,2-d]thiazol-2-yl)cyclohexyl)-2-thia-6-azaspiro[3.3]heptane 2,2-dioxide]",> 50000 nM,59.8 nM,15.1 nM
"Cc1c(-c2[nH]c3sc(C4CCC(N5CC(O)(C(F)(F)F)C5)CC4)nc3c2C(C)C)cn2ncnc2c1C (single isomer, unassigned) [Example 235, 1-(4-(5-(7,8-dimethyl-[1,2,4]triazolo[1,5-a]pyridin-6-yl)-6-isopropyl-4H-pyrrolo[3,2-d]thiazol-2-yl)cyclohexyl)-3-(trifluoromethyl)azetidin-3-ol]",16600 nM,1.01 nM,1.05 nM
"Cc1c(-c2[nH]c3sc(C4CCC(N5CC(O)(C(F)(F)F)C5)CC4)nc3c2C(C)C)cn2ncnc2c1C (single isomer, unassigned) [Example 236, 1-(4-(5-(7,8-dimethyl-[1,2,4]triazolo[1,5-a]pyridin-6-yl)-6-isopropyl-4H-pyrrolo[3,2-d]thiazol-2-yl)cyclohexyl)-3-(trifluoromethyl)azetidin-3-ol]",25400 nM,18.7 nM,1.36 nM
"Cc1c(-c2[nH]c3sc(C4CCC(N5CCC6(CC5)COC6)CC4)nc3c2C(C)C)cn2ncnc2c1C (single isomer, unassigned) [Example 237, 7-(4-(5-(7,8-dimethyl-[1,2,4]triazolo[1,5-a]pyridin-6-yl)-6-isopropyl-4H-pyrrolo[3,2-d]thiazol-2-yl)cyclohexyl)-2-oxa-7-azaspiro[3.5]nonane]",5490 nM,0.29 nM,4.87 nM
"Cc1c(-c2[nH]c3sc(C4CCC(N5CCC6(CC5)COC6)CC4)nc3c2C(C)C)cn2ncnc2c1C (single isomer, unassigned) [Example 238, 7-(4-(5-(7,8-dimethyl-[1,2,4]triazolo[1,5-a]pyridin-6-yl)-6-isopropyl-4H-pyrrolo[3,2-d]thiazol-2-yl)cyclohexyl)-2-oxa-7-azaspiro[3.5]nonane]",5370 nM,5.96 nM,5.4 nM
"Cc1c(-c2[nH]c3sc(C4CCC(N5CC6(CCOCC6)C5)CC4)nc3c2C(C)C)cn2ncnc2c1C (single isomer, unassigned) [Example 239, 2-(4-(5-(7,8-dimethyl-[1,2,4]triazolo[1,5-a]pyridin-6-yl)-6-isopropyl-4H-pyrrolo[3,2-d]thiazol-2-yl)cyclohexyl)-7-oxa-2-azaspiro[3.5]nonane]",9920 nM,0.27 nM,1.96 nM
"Cc1c(-c2[nH]c3sc(C4CCC(N5CC6(CCOCC6)C5)CC4)nc3c2C(C)C)cn2ncnc2c1C (single isomer, unassigned) [Example 240, 2-(4-(5-(7,8-dimethyl-[1,2,4]triazolo[1,5-a]pyridin-6-yl)-6-isopropyl-4H-pyrrolo[3,2-d]thiazol-2-yl)cyclohexyl)-7-oxa-2-azaspiro[3.5]nonane]",6230 nM,2.82 nM,3.72 nM
"Cc1c(-c2[nH]c3sc(C4CCC(NC5COC5)CC4)nc3c2C(C)C)cn(C)c(=O)c1C (single isomer, unassigned) [Example 241, 5-(6-isopropyl-2-(4-(oxetan-3-ylamino)cyclohexyl)-4H-pyrrolo[3,2-d]thiazol-5-yl)-1,3,4-trimethylpyridin-2(1H)-one]",> 50000 nM,3.19 nM,8.06 nM
"Cc1c(-c2[nH]c3sc(C4CCC(NC5COC5)CC4)nc3c2C(C)C)cn(C)c(=O)c1C (single isomer, unassigned) [Example 242, 5-(6-isopropyl-2-(4-(oxetan-3-ylamino)cyclohexyl)-4H-pyrrolo[3,2-d]thiazol-5-yl)-1,3,4-trimethylpyridin-2(1H)-one]",> 50000 nM,16.1 nM,47.1 nM
